Results on 91 molecules are retold here after a melting point compilation (Tetko et al.; mined from patent text by program, amines drawn as free bases though some values may be those of a salt).

Starred links: 1 amine or outer side, 2 acyl side, 3 side chain; linkers in the order of their positions; H or OH if unused. Residues, ends and D or L forms follow the SMILES beside them. Suc = O=C(CCC(=O)[*:2])[*:1]

Turning to `Oc1ccc(-c2cccnc2)cc1`, the melting point was 195 °C.
The molecule `CCn1ncc2c1ncc1c(OCCN(C)C)nc3ncnn3c12` yielded a melting point of 149 to 150 °C.
Molecule `COc1cc(F)cc(-c2ccc3c(c2)C(C)(C)OC(=S)N3)c1` returned a melting point of 170 to 171 °C.
As to `OCc1nc2n(n1)-c1ccccc1N(c1ccc(Cl)cc1)C2`, the melting point fell in the range of 190 to 195 °C.
In the case of `CC(C)(C)OC(=O)N1C[C@@H]2C[C@H]1C(=O)N2C(C)(C)C` it was 167 to 168 °C.
With `O=C(O)[C@@H]1CCCN1C(=S)CCc1ccccc1` the figure was 86 to 88 °C; with `N#Cc1ccc(CC(=O)Cc2ccc(C#N)cc2)cc1`, 149 to 150 °C; with `CC[C@H](C)COc1ccc(-n2cc(C(=O)O)cn2)cc1C#N`, 184 to 186 °C.
With `C=CC=Cc1cc(Oc2cnc(N)nc2N)c(I)cc1C` the figure was 195 to 197 °C.
Regarding `CC(=O)n1ccc2cc(C(=O)NC(C)(C)C)ccc21`, the melting point turned out to be 187 °C.
In the case of `O=C(Nc1cccc(F)c1)c1ccc(CN2C(=O)C3(COc4cc5c(cc43)CCO5)c3ccccc32)cc1` (stereo unspecified) it was more than 250 °C; in that of `CC(C)(C)[Si](C)(C)Oc1ccc(N)c([N+](=O)[O-])c1`, 80 to 83 °C.
As for `CC1Cc2cccc(-c3ccccc3)c2C(=O)O1` (stereo unspecified), the melting point was 140 to 142 °C.
In the case of `COC(=O)c1cc(OC(F)F)cnc1C1=NC(C)(C(C)C)C(=O)N1` (stereo unspecified) it was 104 to 105 °C; in that of `COC(=O)c1ccc(C(=O)NS(=O)(=O)c2ccccc2)cc1`, 267 to 270 °C; in that of `COc1ncnc(-c2cc(NS(C)(=O)=O)c(C#N)cc2F)c1C`, 218 to 220 °C.
In the case of `O=[N+]([O-])c1ccccc1OCC(O)CO` (stereo unspecified) it was 96 °C.
With `COC(C(N)=O)(C(N)=O)c1ccc(Cl)c(Cl)c1` the figure was 211 to 213 °C; with `CCC(=O)Nc1n[nH]c(C(C)(C)C)c1Cl`, 136 to 137 °C.
As to `COc1ccc2ccc(N3C(=O)C4=C(SCC(OC)CS4)C3OC(=O)N3CCN(C)CC3)nc2n1` (stereo unspecified), the melting point amounted to 215 °C.
In the case of `CCN1C=C(C(=O)O)C(=O)CC1c1ccc(OC)cc1` (stereo unspecified) it was 173 to 174 °C; in that of `O=C1NC(=O)c2c1c(-c1ccccc1)cc1oc3ccc(O)cc3c21`, 288 to 290 °C.
`O=C(Nc1cccnc1O)C1CCCC1` gave a melting point of 242 to 243 °C.
In the case of `N#Cc1ccc(O)c(C2(C(=O)O)CCCC2)c1` it was 153 to 154 °C; in that of `N#CCc1c(C(N)=O)ncn1C1CCCCO1` (stereo unspecified), 198 to 199 °C; in that of `CCNC(=O)C1CCCN1C(=O)C(C)NC(=O)CCC(=O)O` (stereo not drawn) (Suc-Ala-Pro-NHEt; configuration not given here), 139 to 141 °C.
With `COc1ccc(OC)c2c1CC[C@](O)(C(=O)O)C2` the figure was 91 to 93 °C; with `CCC1CCN(Cc2ccc(COc3cccc4c3CN(C3CCC(=O)NC3=O)C4=O)cc2)CC1` (stereo unspecified), 180 to 182 °C.
`CC(CCNCCOc1cccc2[nH]ccc12)c1c[nH]c2ccccc12` (stereo unspecified) had a melting point of 70 to 73 °C.
As to `CCn1c(C(F)(F)F)nn(C2=CCC(F)(C(N)=S)C(N)=C2)c1=O` (stereo unspecified), the melting point came out at 161 °C.
Molecule `COc1ccc(Oc2cc3nc(-c4ccccc4)oc3cc2[N+](=O)[O-])cc1` had a melting point of 142 to 146 °C.
In the case of `CCc1cc2cc(CC(=O)O)c(Cl)c(Cl)c2s1` it was 179 to 181 °C.
With `Cc1ccc(-c2nc(-c3ccc(C)cc3C)nc(-c3ccc(OCCCCCCO)cc3O)n2)c(C)c1` the figure was 117 to 118 °C.
In the case of `CS(=O)(=O)c1ccc(-c2[nH]nc(OC3CCCC3=O)c2-c2ccc(F)cc2)cc1` (stereo unspecified) it was 96 to 99 °C; in that of `CC(=O)CS(=O)(=O)N(C)C`, 47 to 49 °C.
Consider `C=C(C)C(=O)NCCCNc1nc(Cl)nc(Cl)n1`, for which the melting point was in the range of 138 to 140 °C.
`N#Cc1ccc(Cn2cc(C#N)nn2)cc1` registered a melting point of 93.5 to 94 °C.
For `CCOc1cc(N)c([N+](=O)[O-])cc1NCCO`, the melting point lay in the range of 157 to 158 °C.
The molecule `Cn1c(C(F)(F)F)ccc(-c2cc(CBr)c(Cl)cc2F)c1=O` registered a melting point of 117 to 118 °C.
In the case of `O=C(NCC12CC3CC(CC(C3)C1)C2)c1cc([N+](=O)[O-])ccc1Cl` it was 178 °C; in that of `CCCCCCC1C(=O)OC2OC3(C)CCC4C(C)CCC1C24OO3` (single isomer, unassigned; (+)), 80.5 to 82 °C; in that of `CS(C)=NS(=O)(=O)c1ccc(N2CC(CO)OC2=O)cc1` (stereo unspecified), 162 to 164 °C.
Molecule `c1ccc(N2CCN(Cc3ccc4ccccc4c3)CC2)nc1` showed a melting point of 124 to 126 °C.
In turn, `CCCCCCCCCCCCCCOc1ccc([N+](=O)[O-])cc1` yielded a melting point of 57 to 60 °C.
`CCOC(=O)c1c(C)nc(N2CCN(c3ccccc3)CC2)c2nccnc12` came in with a melting point of 85 to 87 °C.
With `Cc1cccc(-c2[nH]c(C(C)C)nc2-c2cccc(-c3ccc(S(N)(=O)=O)cc3F)c2)n1` the figure was 246 to 248 °C; with `Cc1ccc(-c2nnc(N3CCC4(CC3)OCCO4)nc2-c2ccc(C)cc2)cc1`, 169 to 170 °C; with `COc1ccc(-c2nc(C(F)(F)F)c[nH]2)cc1`, 204 to 206 °C.
In turn, `O=S(=O)(/C=C/c1ccc(I)cc1)CS(=O)(=O)/C=C/c1ccc(I)cc1` registered a melting point of 253 to 255 °C.
In the case of `CN1Cc2c(C#CC(C)(C)O)ncn2-c2ccc(F)cc2C1=O`, the melting point was 163 to 164 °C.
Turning to `COc1cc(-c2csnc2C)cc2oc(=O)c(C)c(C)c12`, the melting point lay within 163 to 165 °C.
In turn, `CN(C)CCCCNC(=O)c1ccccc1-c1nnc(CSCCOc2ccccc2)o1` came in with a melting point of 62 to 65 °C.
With `Cc1cc(NC23N=CN=C2C=NC(N2CCC(C)CC2)=N3)[nH]n1` (stereo unspecified) the figure was more than 300 °C; with `CCOC(=O)C(C)(C)Oc1cccc(Cc2ccc(C(F)(F)F)cc2)c1`, 50 °C; with `CCCNC(=O)C1(CCCCNc2ccc(Br)nc2)c2ccccc2-c2ccccc21`, 67 to 69 °C.
With `Nc1ccccc1NC(=O)c1cc2cc(OCCN3CCOCC3)ccc2s1` the figure was 166 to 169 °C.
For the molecule `Cc1cc(N)nc(CCc2nc3cc(-c4cccc(O)c4)cnc3[nH]2)c1`, the melting point was 162 °C.
In the case of `COc1ccc(CNc2nc3ccccc3c3[nH]c(C4CCCC4)nc23)cc1` it was 245 to 247 °C.
In the case of `NC(=O)c1cccc(OCCCl)c1` it was 125 to 126 °C; in that of `COCCc1cc(N)n2nc(SC)c(S(=O)(=O)c3ccccc3)c2n1`, 186 to 187 °C.
For the molecule `CNC(=O)Nc1ccc2c(c1)C(=O)NC(=O)C2(C)C`, the melting point lay in the range of 257 to 258 °C.
`CCCCCCOc1ccc(-n2cc(C(=O)O)cn2)cc1C#N` came in with a melting point of 164 to 165 °C.
In the case of `COc1cccc(N(C)C(=O)c2cnc(-c3cccc(C)c3)s2)c1` it was 88 °C; in that of `CCc1cccc2c(/C=C(\C)C(=O)O)cc(OC)c(OCOC)c12`, 127 to 128 °C.
The molecule `Cc1c(Cc2cccc3ccccc23)c(=O)oc2cc(OCc3nnn[nH]3)cc(OCc3nnn[nH]3)c12` registered a melting point of 164 to 174 °C.
In the case of `Nc1ncc(Sc2cccnc2)s1`, the melting point is 140 to 142 °C.
`COc1cc(C(=O)O)ccc1CC(=O)Nc1cccc(/C=C/c2nc(C3CCC3)cs2)c1` gave a melting point of 242 to 243 °C.
Take `NC(=O)c1ccc(F)c2c1C[C@@H](N(CCCc1c[nH]c3c(F)cc(F)cc13)CC1CC1)CO2`: the melting point fell in the range of 147 to 151 °C.
In the case of `C[C@]1(CN2CCN(c3ccc(OC(F)(F)F)cc3)CC2)Cn2cc([N+](=O)[O-])nc2O1` it was 129 to 130 °C; in that of `CCOC(=O)c1c(C)nc(N2CCN(C)CC2)c([N+](=O)[O-])c1N`, 73 to 75 °C; in that of `CCCCCCCCCCOc1ccc(C(=O)OCC(=O)OC)cc1`, 30 to 32 °C.
In the case of `CC12CCC=CC1=CCC1C2CCC2(C)C(OS(=O)(=O)C(F)(F)F)=CCC12` (stereo unspecified), the melting point lay within 75 to 76 °C.
With `CC(Cc1ccccc1)C1CC=C2C3=C(CCC21C)C1(C)CCC(O)C(C)(C)C1CC3` (stereo unspecified), the melting point lay in the range of 179 to 186 °C.
Molecule `Nc1ncc2ncn(OCC(O)CO)c2n1` (stereo unspecified) gave a melting point of 183 to 185 °C.
In the case of `COC(=O)COc1c(C)cc(SCc2ccc(-c3ccc(C(F)(F)F)cn3)cc2)c2c1CCCO2` it was 156 to 157 °C; in that of `FC(F)(F)c1cccc(N2CCN(Cc3cn4cc(Cl)ccc4n3)CC2)c1`, 145 to 146 °C.
In the case of `CS(=O)(=O)c1nc(Cl)cc(Nc2ccc(C(F)(F)F)cc2)n1` it was 184 to 186 °C.
With `COCCOc1nc(Cl)ncc1Cc1ccc(C)nc1` the figure was 50 to 52 °C; with `COC(=O)COc1cccnc1`, 174 °C.
On to `COc1cc(N)c(Cl)cc1C(=O)NCC1CCN(CCCCCC(=O)c2cn(C)c3ccccc23)CC1`, for which the melting point lay within 125 to 127 °C.
Consider `COC1(c2cc(F)cc(OCc3nc(-c4ccc(F)cc4)c(-c4ccc(S(N)(=O)=O)cc4)o3)c2)CCOCC1`, for which the melting point is 70 to 72 °C.
With `CCC(=O)NC(C)(C)c1ccc(C(=O)Nc2cn3cc(Cl)ccc3n2)cc1` the figure was 249 to 252 °C; with `CCOC(=O)c1cn(C)c2cnc3c(F)c(N4CCC(O)(c5cccc(C(F)(F)F)c5)CC4)ccc3c2c1=O`, more than 260 °C.
Molecule `OCCOc1cccc(-n2ccnc2)c1` gave a melting point of 81 to 83 °C.
The molecule `CCCCCCCNC(=NC#N)Nc1cccnc1` had a melting point of 90 to 91 °C.
Molecule `O=C(O)Cc1cccc(Cc2nc3c(F)c(F)cc(F)c3s2)c1` yielded a melting point of 132 to 134 °C.
With `CCCCCc1cnc(N2CCC(c3ccc(COc4ccc(S(C)(=O)=O)cc4)nc3)CC2)nc1` the figure was 154 to 157 °C; with `O=C1NCCc2ccc(OCCCCN3CCCN(c4cccc(Cl)c4Cl)CC3)cc21`, 86 to 88 °C; with `CCOC(=O)c1snc(-c2ccccc2)c1C(=O)OCC`, 70 to 71.5 °C.
As to `CC(NC(=O)C1=C(C(=O)Nc2cc(OC3CCCC3)c(Cl)cc2F)CCCC1)c1ccccc1` (stereo unspecified), the melting point lay in the range of 173 to 175 °C.
Turning to `C/C(=C\Cn1oc(=O)[nH]c1=O)c1cccc(OCc2nc(-c3ccccc3)oc2C)c1`, the melting point lay in the range of 118 to 119 °C.

Usually melting point stands for the temperature of the solid-liquid transition.
